Like-named read-outs stand apart in the source and are kept apart here.
Key:
[1] = system: HEI-OC1 cells; test: Protection against cisplatin-induced Caspase-3/7 activity in HEI-OC1 cells (Caspase-Glo 3/7); type: cell-based, mouse; details: for IC50: Mus musculus, HEI-OC1; for protection against cisplatin-induced cell death in HEI-OC1 (in words): kinase inhibitor library screen
Method: A screen of a library composed of 75 kinase inhibitors was conducted to identify inhibitors that protect against cisplatin-induced hair cell loss.

[2] = system: mouse cochlear explants; test: tissue or blood; details: for IC50: Mus musculus; for protection against cisplatin-induced hair cell loss/death in mouse cochlear explants (in words): cisplatin 150 μM
Method: Dab alone or Dab added 1 h before cisplatin (150 μM) to P3 FVB cochlear explants for 24 h.
Now referring to FIG. 9, testing of a B-Raf/MEK1/2 inhibitor combination in mouse cochlear explant cultures. Compounds alone or combination of the compounds were added 1 h before cisplatin (150 μM) to P3 FVB cochlear explants for 24 h, and number of outer hair cells per 160 μm of middle turn regions of the cochlea were counted by phalloidin staining, mean±SEM, P=*<0.05, P=***<0.001, compared to cisplatin alone by unpaired two-tailed Student's t-test.
Methods of using a zebrafish model system to evaluate small molecules capable of decreasing, inhibiting or preventing sensory hair cell damage or death are provided. Zebrafish are an advantageous animal model system for studying causes and prevention of hearing loss in comparison to mammalian animal model systems. The relative inaccessibility of hair cells in mammalian organisms limits their use as a high throughput model for identifying compounds that would prevent toxin mediated and other forms of hair cell death from occurring. The lateral line neuromast hair cells of zebrafish (Danio rerio) are structurally and functionally similar to mammalian sensory hair cells. […] Compounds alone or compounds added 1 h before cisplatin (150 μM) to P3 FVB cochlear explants for 24 h, and number of outer hair cells per 160 μm of middle turn regions of the cochlea were counted by phalloidin staining, mean±SEM, P=*<0.05, P=**<0.005, ***P<0.0005 compared to cisplatin alone by unpaired two-tailed Student's t-test.
Compounds alone (purple bar) or combination of the compounds were added 1 h before cisplatin (150 μM) to P3 FVB cochlear explants for 24 hrs, and number of outer hair cells per 160 μm of middle turn regions of the cochlea were counted by phalloidin staining, mean±SEM, P=*<0.05, P=**<0.005, compared to cisplatin alone by unpaired two-tailed Student's t-test.

[3] = system: zebrafish lateral line neuromast hair cells; test: Protection of zebrafish lateral line neuromast hair cells in vivo against cisplatin; set-up: species or system zebrafish (Danio rerio)
Method: Lateral line neuromasts of zebrafish were stained and number of hair cells per neuromast were counted. Cisplatin (CP): 400 μM. *, **, and ***: P<0.05, 0.01, and 0.001 compared to CP alone.
Protection of zebrafish lateral line neuromast hair cells in vivo. […] After the treatment, animals were transferred to fresh fish water to recover for 1 hour and then fixed and immunostained for GFP and otoferlin. Quantification of the number of hair cells per neuromast after the different treatments represented as mean+/−SEM. Student's t test was performed, *p<0.05, **p<0.01, ***p<0.001, compared versus CP 400 μM. Neuromasts inspected: SO3 (supraorbital line neuromast) and O1-2 (otic line neuromasts) from at least 3 different animals.

[4] = system: B-RAF, ERK and MEK; test: Western blots of cisplatin activated B-Raf signaling cascade in HEI-OC1 cells; type: cell-based, mouse; details: 50 μM cisplatin, 1 hour; dose dependent
Text: Western blots show representative changes of each signaling molecule upon cisplatin and Dab treatment at specific doses (5B) and times (5A).

[5] = system: HEI-OC1 cells; details: CELLTITER-GLO
[6] = Table 1, read-out: HEI-OC1 cell line IC50
[7] = read-out: Mouse cochlear explant IC50
[8] = read-out: IC50, protection against cisplatin-induced hair cell loss in mouse cochlear explants

SMILES | IC50 [1, 6] | protection against cisplatin-induced cell death in HEI-OC1 (in words) [1] | IC50 [2, 7] | LD50 in mouse cochlear explants ([2]; FVB, mouse, 24 h) | IC50 [2, 8] | protection against cisplatin-induced hair cell loss/death in mouse cochlear explants (in words) [2] | other results
CC1(COc2ccc3c(c2)ncn3-c2ccc3cccc(N4CCC(N)CC4)c3n2)COC1 [Crenolanib] | 2400 nM | potently protected | 350 nM |  |  |  | protection against cisplatin-induced hair cell loss/death in mouse cochlear explants (in words) ([2]; listed as CRENOLANIB): potently protected; protection against cisplatin-induced hair cell loss/death in mouse cochlear explants (in words) ([2]; listed as crenolanib): protected
CC(C)(C)c1nc(-c2cccc(NS(=O)(=O)c3c(F)cccc3F)c2F)c(-c2ccnc(N)n2)s1 [Dabrafenib] | 13500 nM | potently protected | 30 nM | 13.47 µM | 30 nM | potently protected | Zebrafish cisplatin protection at concentration ([3]; FIG. 11A): 0.100 µM; Zebrafish protection ([3]; Table 1, protective concentration, cisplatin 400 μM): 0.100 µM; effect on cisplatin-mediated activation of B-RAF, ERK and MEK (in words) [4]: mitigates
FC(F)(F)c1ccc(/C=C/c2nc(COc3ccc(CCCCn4ccnn4)cc3)co2)cc1 [Mubritinib] | 39 nM | potently protected | 2 nM |  | 2.5 nM | potently protected | IC50 ([1]; read-out: IC50, protection against cisplatin-induced Caspase-3/7 activity in HEI-OC1 cells): 4 nM; LD50 in mouse cochlear explants ([2]; FVB, mouse): > 0.5 µM; LD50 in HEI-OC1 cells [5]: > 55 µM
CCCS(=O)(=O)Nc1ccc(F)c(C(=O)c2c[nH]c3ncc(Cl)cc23)c1F [PLX-4750] |  |  |  |  | 200 nM | protected | 
CCOc1cc2ncc(C#N)c(Nc3ccc(F)c(Cl)c3)c2cc1NC(=O)/C=C/CN(C)C [Pelitinib] |  |  |  |  |  |  | IC50 ([1]; cisplatin-Caspase-Glo 3/7, read-out: IC50, protection against cisplatin-induced Caspase-3/7 activity in HEI-OC1 cells): 600 nM; protection of outer hair cells against cisplatin-induced hair cell loss in mouse cochlear explants ([2]; 1 hour pre-incubation, N=3): 49%
Cn1c(Nc2ccc(C(F)(F)F)cc2)nc2cc(Oc3ccnc(-c4ncc(C(F)(F)F)[nH]4)c3)ccc21 [RAF-265] |  |  |  | greater than 3 μM | 20 nM | protected | 
O=C(Nc1cccc(Cl)c1)Nc1ncc(CCNc2ncnc3ccsc23)s1 [SNS-314] | 7490 nM | potently protected | 50 nM |  |  | protected | protection against cisplatin-induced hair cell loss/death in mouse cochlear explants (in words) ([2]; listed as SNS314): potently protected
CC(=O)Nc1cccc(-n2c(=O)n(C3CC3)c(=O)c3c(Nc4ccc(I)cc4F)n(C)c(=O)c(C)c32)c1 [Trametinib] |  |  |  |  | 50 nM |  | LD50 in mouse cochlear explants [2]: greater than 3 μM
CCCS(=O)(=O)Nc1ccc(F)c(C(=O)c2c[nH]c3ncc(-c4ccc(Cl)cc4)cc23)c1F [Vemurafenib] |  |  |  | greater than 3 μM | ~200 nM |  | 
